Experimental data from patent publication US9440956B2, “Indole, indazole and benzimidazole arylamides as P2X3 and P2X2/3 antagonists” (Roche Palo Alto LLC, priority 2010, dated 2016).

Tests used:
human P2X2/3 receptor = target: T1, human P2X2/3 receptor (Homo sapiens, UniProt P56373+Q9UBL9); experiment: P2X2/3 FLIPR (Fluorometric Imaging Plate Reader) assay; assay type: cell-based; settings: CHO-K1 cells transfected with human P2X2/3; agonist α,β-meATP 5 μM; Fluo-3 calcium fluorescence
T1 construct: expressed in transfected cells; host or cells: CHO-K1
T1 sequence (Q9UBL9 1-471): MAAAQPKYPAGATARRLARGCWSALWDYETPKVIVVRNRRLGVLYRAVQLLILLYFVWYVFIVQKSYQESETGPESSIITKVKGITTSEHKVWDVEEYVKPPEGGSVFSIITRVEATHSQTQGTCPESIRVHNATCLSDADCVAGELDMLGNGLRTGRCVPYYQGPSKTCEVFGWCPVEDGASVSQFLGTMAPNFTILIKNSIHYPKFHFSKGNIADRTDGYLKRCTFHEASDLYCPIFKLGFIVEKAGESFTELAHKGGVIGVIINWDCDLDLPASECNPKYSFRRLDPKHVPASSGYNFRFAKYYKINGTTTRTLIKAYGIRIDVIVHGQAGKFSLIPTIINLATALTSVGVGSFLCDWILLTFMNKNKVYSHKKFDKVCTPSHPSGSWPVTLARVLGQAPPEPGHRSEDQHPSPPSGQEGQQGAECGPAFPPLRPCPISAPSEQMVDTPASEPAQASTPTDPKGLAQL
T1 sequence (P56373 1-397): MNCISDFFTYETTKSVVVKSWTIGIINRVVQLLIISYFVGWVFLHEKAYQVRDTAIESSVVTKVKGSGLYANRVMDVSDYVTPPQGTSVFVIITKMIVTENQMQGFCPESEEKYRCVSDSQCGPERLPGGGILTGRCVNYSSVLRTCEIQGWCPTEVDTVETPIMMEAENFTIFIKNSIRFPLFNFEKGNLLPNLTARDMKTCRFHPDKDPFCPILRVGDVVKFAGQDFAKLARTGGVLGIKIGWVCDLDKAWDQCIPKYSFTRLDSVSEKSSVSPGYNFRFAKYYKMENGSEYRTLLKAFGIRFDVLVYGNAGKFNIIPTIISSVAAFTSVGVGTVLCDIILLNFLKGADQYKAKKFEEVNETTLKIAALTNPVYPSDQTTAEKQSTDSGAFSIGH
Experimental: (§1) P2X3/P2X2/3 FLIPR (Fluorometric Imaging Plate Reader) Assay
(§2) CHO-K1 cells were transfected with cloned rat P2X3 or human P2X2/3 receptor subunits and passaged in flasks. 18-24 hours before the FLIPR experiment, cells were released from their flasks, centrifuged, and resuspended in nutrient medium at 2.5×10^5 cells/ml. The cells were aliquoted into black-walled 96-well plates at a density of 50,000 cells/well and incubated overnight in 5% CO2 at 37° C. On the day of the experiment, cells were washed in FLIPR buffer (calcium- and magnesium-free Hank's balanced salt solution, 10 mM HEPES, 2 mM CaCl2, 2.5 mM probenecid; FB). Each well received 100 μl FB and 100 μl of the fluorescent dye Fluo-3 AM [2 μM final conc.]. After a 1 hour dye loading incubation at 37° C., the cells were washed 4 times with FB, and a final 75 μl/well FB was left in each well.
(§3) Test compounds (dissolved in DMSO at 10 mM and serially diluted with FB) or vehicle were added to each well (25 μl of a 4× solution) and allowed to equilibrate for 20 minutes at room temperature. The plates were then placed in the FLIPR and a baseline fluorescence measurement (excitation at 488 nm and emission at 510-570 nm) was obtained for 10 seconds before a 100 μl/well agonist or vehicle addition. The agonist was a 2× solution of α,β-meATP producing a final concentration of 1 μM (P2X3) or 5 μM (P2X2/3). Fluorescence was measured for an additional 2 minutes at 1 second intervals after agonist addition. A final addition of ionomycin (5 μM, final concentration) was made to each well of the FLIPR test plate to establish cell viability and maximum fluorescence of dye-bound cytosolic calcium. Peak fluorescence in response to the addition of α,β-meATP (in the absence and presence of test compounds) was measured and inhibition curves generated using nonlinear regression. PPADS, a standard P2X antagonist, was used as a positive control.

rat P2X3 receptor = target: T2, rat P2X3 receptor (Rattus norvegicus, UniProt P49654); experiment: P2X3 FLIPR (Fluorometric Imaging Plate Reader) assay; assay type: cell-based; settings: CHO-K1 cells transfected with cloned rat P2X3; agonist α,β-meATP 1 μM; Fluo-3 calcium fluorescence
T2 construct: expressed in transfected cells; host or cells: CHO-K1
T2 sequence (P49654 1-397): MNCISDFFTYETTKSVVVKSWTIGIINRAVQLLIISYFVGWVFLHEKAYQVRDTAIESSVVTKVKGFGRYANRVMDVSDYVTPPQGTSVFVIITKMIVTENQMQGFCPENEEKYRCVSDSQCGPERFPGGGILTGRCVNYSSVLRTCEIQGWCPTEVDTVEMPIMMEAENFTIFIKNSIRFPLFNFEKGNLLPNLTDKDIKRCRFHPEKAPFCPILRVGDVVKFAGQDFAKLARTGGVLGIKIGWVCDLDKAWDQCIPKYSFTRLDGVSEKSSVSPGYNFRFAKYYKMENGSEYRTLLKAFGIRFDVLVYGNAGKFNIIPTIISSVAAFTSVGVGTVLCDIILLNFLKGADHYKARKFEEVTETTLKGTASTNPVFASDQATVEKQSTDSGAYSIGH
Experimental: as §1, §2, §3

Compound	pKi P2X2/3 (human P2X2/3 receptor)	pKi P2X3 (rat P2X3 receptor)
CCCCn1ncc2c(-c3ccc(C)cn3)cc(C(=O)N[C@@H](C)CO)cc21 [Compound 3, 1-Butyl-4-(5-methyl-pyridin-2-yl)-1H-indazole-6-carboxylic acid ((S)-2-hydroxy-1-methyl-ethyl)-amide]		6.31
Cc1ccc(-c2cc(C(=O)N[C@@H](C)CO)cc3c2cnn3C(C)C)nc1 [Compound 5, 1-Isopropyl-4-(5-methyl-pyridin-2-yl)-1H-indazole-6-carboxylic acid ((S)-2-hydroxy-1-methyl-ethyl)-amide]	5	
Cc1ccc(-c2cc(C(=O)NCc3ccc(C)nn3)cc3c2cnn3CCC(C)C)nc1 [Compound 8, 1-(3-Methyl-butyl)-4-(5-methyl-pyridin-2-yl)-1H-indazole-6-carboxylic acid (6-methyl-pyridazin-3-ylmethyl)-amide]	6.23	7.66
Cc1ccc(-c2cc(C(=O)N[C@@H](C)CO)cc3c2cnn3Cc2ccccc2)nc1 [Compound 10, 1-Benzyl-4-(5-methyl-pyridin-2-yl)-1H-indazole-6-carboxylic acid ((S)-2-hydroxy-1-methyl-ethyl)-amide]	5.61	6.2
Cc1ccc(-c2cc(C(=O)NCc3ccc(C)nn3)cc3c2cnn3Cc2ccccc2)nc1 [Compound 11, 1-Benzyl-4-(5-methyl-pyridin-2-yl)-1H-indazole-6-carboxylic acid (6-methyl-pyridazin-3-ylmethyl)-amide]	6.56	7.62
Cc1ccc(-c2cc(C(=O)NCc3ccc(C)nn3)cc3c2cnn3CC(F)(F)F)nc1 [Compound 13, 4-(5-Methyl-pyridin-2-yl)-1-(2,2,2-trifluoro-ethyl)-1H-indazole-6-carboxylic acid (6-methyl-pyridazin-3-ylmethyl)-amide]	6.51	7.19
Cc1ccc(-c2cc(C(=O)NCc3cnc(C)cn3)cc3c2cnn3-c2ccccc2)nc1 [Compound 14, 4-(5-Methyl-pyridin-2-yl)-1-phenyl-1H-indazole-6-carboxylic acid (5-methyl-pyrazin-2-ylmethyl)-amide]	6.54	7.44
Cc1ccc(-c2cc(C(=O)N[C@@H](C)CO)cc3c2cnn3-c2ccccc2)nc1 [Compound 15, 4-(5-Methyl-pyridin-2-yl)-1-phenyl-1H-indazole-6-carboxylic acid ((S)-2-hydroxy-1-methyl-ethyl)-amide]	5.34	6.19
Cc1ccc(-n2ncc3c(-c4ccc(C)cn4)cc(C(=O)NCc4cnc(C)cn4)cc32)cc1 [Compound 16, 4-(5-Methyl-pyridin-2-yl)-1-p-tolyl-1H-indazole-6-carboxylic acid (5-methyl-pyrazin-2-ylmethyl)-amide]	6.4	7.7
Cc1ccc(-n2ncc3c(-c4ccc(C)cn4)cc(C(=O)N[C@@H](C)CO)cc32)cc1 [Compound 17, 4-(5-Methyl-pyridin-2-yl)-1-p-tolyl-1H-indazole-6-carboxylic acid ((S)-2-hydroxy-1-methyl-ethyl)-amide]	4.97	7.38
Cc1ccc(-c2cc(C(=O)N[C@@H](C)CO)cc3c2ccn3C(C)C)nc1 [Compound 27, 1-Isopropyl-4-(5-methyl-pyridin-2-yl)-1H-indole-6-carboxylic acid ((S)-2-hydroxy-1-methyl-ethyl)-amide]		5.48
Cc1ccc(-c2cc(C(=O)N[C@@H](C)CO)cc3c2ncn3CC(C)C)nc1 [Compound 29, 3-Isobutyl-7-(5-methyl-pyridin-2-yl)-3H-benzoimidazole-5-carboxylic acid ((S)-2-hydroxy-1-methyl-ethyl)-amide]		5.24

Next, values leading:

pKi P2X2/3 (human P2X2/3 receptor)	pKi P2X3 (rat P2X3 receptor)	Compound
5.78	7.3	Cc1ccc(-c2cc(C(=O)NCc3cnc(C)cn3)cc3c2cnn3CC(C)C)nc1 [Compound 1, 1-Isobutyl-4-(5-methyl-pyridin-2-yl)-1H-indazole-6-carboxylic acid (5-methyl-pyrazin-2-ylmethyl)-amide]
6.34	7.38	CCCCn1ncc2c(-c3ccc(C)cn3)cc(C(=O)NCc3cnc(C)cn3)cc21 [Compound 2, 1-Butyl-4-(5-methyl-pyridin-2-yl)-1H-indazole-6-carboxylic acid (5-methyl-pyrazin-2-ylmethyl)-amide]
4.92	6.58	Cc1ccc(-c2cc(C(=O)NCc3cnc(C)cn3)cc3c2cnn3C(C)C)nc1 [Compound 4, 1-Isopropyl-4-(5-methyl-pyridin-2-yl)-1H-indazole-6-carboxylic acid (5-methyl-pyrazin-2-ylmethyl)-amide]
5	5.51	COCCn1ncc2c(-c3ccc(C)cn3)cc(C(=O)NCc3cnc(C)cn3)cc21 [Compound 6, 1-(2-Methoxy-ethyl)-4-(5-methyl-pyridin-2-yl)-1H-indazole-6-carboxylic acid (5-methyl-pyrazin-2-ylmethyl)-amide]
6.17	7.47	Cc1ccc(-c2cc(C(=O)NCc3cnc(C)cn3)cc3c2cnn3CCC(C)C)nc1 [Compound 7, 1-(3-Methyl-buty)-4-(5-methyl-pyridin-2-yl)-1H-indazole-6-carboxylic acid (5-methyl-pyrazin-2-ylmethyl)-amide]
6.25	7.25	Cc1ccc(-c2cc(C(=O)NCc3cnc(C)cn3)cc3c2cnn3Cc2ccccc2)nc1 [Compound 9, 1-Benzyl-4-(5-methyl-pyridin-2-yl)-1H-indazole-6-carboxylic acid (5-methyl-pyrazin-2-ylmethyl)-amide]
5.7	6.52	Cc1ccc(-c2cc(C(=O)NCc3cnc(C)cn3)cc3c2cnn3CC(F)(F)F)nc1 [Compound 12, 4-(5-Methyl-pyridin-2-yl)-1-(2,2,2-trifluoro-ethyl)-1H-indazole-6-carboxylic acid (5-methyl-pyrazin-2-ylmethyl)-amide]
	6.26	Cc1ccc(-c2cc(C(=O)NCc3cnc(C)cn3)cc3c2ccn3C(C)C)nc1 [Compound 26, 1-Isopropyl-4-(5-methyl-pyridin-2-yl)-1H-indole-6-carboxylic acid (5-methyl-pyrazin-2-ylmethyl)-amide]
	6.46	Cc1ccc(-c2cc(C(=O)NCc3cnc(C)cn3)cc3c2ncn3CC(C)C)nc1 [Compound 28, 3-Isobutyl-7-(5-methyl-pyridin-2-yl)-3H-benzoimidazole-5-carboxylic acid (5-methyl-pyrazin-2-ylmethyl)-amide]
